The results in this text go back to patent publication US20250177383A1, “DI-CYCLOPROPYL BASED IL-17A MODULATORS AND USES THEREOF” (DICE ALPHA, INC., priority 2022, published 2025).

The target of the first test is T1, IL-17A/A (Homo sapiens, UniProt Q16552).
T1 sequence (Q16552 24-155): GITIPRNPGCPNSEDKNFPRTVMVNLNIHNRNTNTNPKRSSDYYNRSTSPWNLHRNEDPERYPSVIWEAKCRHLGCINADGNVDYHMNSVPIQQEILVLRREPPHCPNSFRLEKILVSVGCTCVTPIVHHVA
As to the kind of experiment: IL-17A/A HEK-Blue Cell Assay. The conditions noted are these: HEK-Blue IL-17 reporter cells, IL-17A/A stimulation, 20 hours, SEAP readout; read-out: IL17 AA HEK-5 pIC50 (converted). It counts as cell-based. As to the method:
The HEK-Blue IL-17 reporter cell line (Fisher #NC1408637) was used for cell-based IL-17A/A inhibition assays. Cells were grown and prepared for assays according to the manufacturer's instructions. This cell line consists of HEK 293 cells that were designed to expressed IL-17R^A, IL-17R^C, and the ActI adapter molecule, the combination of which, when stimulated by IL-17A/A activates a NFκB promoter and drives expression of a recombinant Secreted Alkaline Phosphatase (SEAP) protein. Media from the cells is then added to a development reagent (Quanti-Blue Substrate, Fisher #NC9711613), and read at A630.
Compounds were titrated in DMSO, with a top final compound concentration of 10 uM and added to the cells immediately before adding IL-17A/A (Genscript #Z03228). The cells, compound, and IL-17A/A were then incubated for 20 hours before media was removed for SEAP analysis. The resulting inhibition curve was then analyzed using a Dotmatics screening protocol, and IC50 values were determined using a 4-parameter nonlinear fit. DMSO was added to a universal final concentration of 0.1% to optimize background. IL-17A/A inhibition data is provided in Table 1 for selected compounds.
On to `CCC(=O)N[C@@H](C(=O)N1CCC(C)(O)CC1)[C@@H](C)c1ccc(NC(=O)[C@@H](NC(=O)c2ccnn2CCF)C(C2CC2)C2CC2)c(F)c1` [Compound 250], for which the IC50 was less than 10 nM.
Still for that read-out and setting: the same measure for `CCn1nccc1C(=O)N[C@H](C(=O)Nc1ccc([C@H](C)[C@@H](NC(=O)CC2CC2)C(=O)N2CCN(C)[C@H](C)C2)cc1F)C(C1CC1)C1CC1` [Compound 226]: less than 10 nM; for `CO[C@@H](C)C(=O)N[C@@H](C(=O)N1C[C@H]2C[C@@H]1CN2C)[C@@H](C)c1ccc(NC(=O)[C@@H](NC(=O)c2ccnn2C(C)C)C(C2CC2)C2CC2)c(F)c1` [Compound 263]: 10 to 100 nM; for `CCc1nonc1C(=O)N[C@H](C(=O)Nc1ccc([C@H](C)[C@@H](NC(=O)N(C)C2CC2)C(=O)N2CCN(C)CC2)cc1F)C(C1CC1)C1CC1` [Compound 224]: less than 10 nM.
As to `CCC(=O)N[C@@H](C(=O)N1CCN(C)CC1)[C@@H](C)c1ccc(NC(=O)[C@H](NC(=O)c2ccnn2CC)C(C2CC2)C2CC2)c(F)c1` [Compound 201], the IC50 was 10 to 100 nM.
Consider `CO[C@@H](C)C(=O)N[C@@H](C(=O)N1CCN(C)[C@H](C)C1)[C@@H](C)c1ccc(NC(=O)[C@@H](NC(=O)c2ccnn2C(C)C)C(C2CC2)C2CC2)c(F)c1` [Compound 260], for which the IC50 was less than 10 nM.
For `CCC(=O)N[C@@H](C(=O)N1C[C@@H](C)N(C)[C@@H](C)C1)[C@@H](C)c1ccc(NC(=O)[C@@H](NC(=O)c2nonc2CC)C(C2CC2)C2CC2)c(F)c1` [Compound 205], the IC50 was less than 10 nM.
`CCC(=O)N[C@@H](C(=O)N1C[C@H]2CN(C)C[C@H]2C1)[C@@H](C)c1ccc(NC(=O)[C@@H](NC(=O)c2ccnn2CC)C(C2CC2)C2CC2)c(F)c1` [Compound 237]: the IC50 is 100 to 10000 nM.
As to `CCC(=O)N[C@@H](C(=O)N1CCN(C)C(COC)C1)[C@@H](C)c1ccc(NC(=O)[C@@H](NC(=O)c2ccnn2CC)C(C2CC2)C2CC2)c(F)c1` (single isomer, unassigned) [Compound 202], the IC50 was 10 to 100 nM.
Regarding `CCC(=O)N[C@@H](C(=O)N1CCOCC1)[C@@H](C)c1ccc(NC(=O)[C@@H](NC(=O)c2ccnn2CCN2CCOCC2)C(C2CC2)C2CC2)c(F)c1` [Compound 253], the IC50 is 100 to 10000 nM.
As for `CCC(=O)N[C@@H](C(=O)N1CCN(C)[C@H](C)C1)[C@@H](C)c1ccc(NC(=O)[C@@H](NC(=O)c2ccnn2CC(F)(F)F)C(C2CC2)C2CC2)c(F)c1` [Compound 248], the IC50 is 10 to 100 nM.
On to `CCC(=O)N[C@@H](C(=O)N1CCC(C)(O)CC1)[C@@H](C)c1ccc(NC(=O)[C@@H](NC(=O)c2ccnn2CCN2CCOCC2)C(C2CC2)C2CC2)c(F)c1` [Compound 252], for which the IC50 was 10 to 100 nM.
In the case of `CCC(=O)N[C@@H](C(=O)N1CCN(C)CC1)[C@@H](C)c1ccc(NC(=O)[C@@H](NC(=O)c2ccnn2CC(F)F)C(C2CC2)C2CC2)c(F)c1` [Compound 231], the IC50 is 10 to 100 nM.
On to `CCC(=O)N[C@@H](C(=O)N1CCN(C)CC1)[C@@H](C)c1ccc(NC(=O)[C@@H](NC(=O)c2ccnn2CC(F)(F)F)C(C2CC2)C2CC2)c(F)c1` [Compound 249], for which the IC50 was 10 to 100 nM.
Turning to `CCC(=O)N[C@@H](C(=O)N1CCN(C)[C@H](C)C1)[C@@H](C)c1ccc(NC(=O)[C@@H](NC(=O)c2ccnn2C(C)C)C(C2CC2)C2CC2)c(F)c1` [Compound 258], the IC50 is less than 10 nM.
In the case of `CO[C@@H](C)C(=O)N[C@@H](C(=O)N1CCN(C)CC1)[C@@H](C)c1ccc(NC(=O)[C@@H](NC(=O)c2ccnn2C(C)C)C(C2CC2)C2CC2)c(F)c1` [Compound 259], the IC50 was less than 10 nM.
Take `CCn1nccc1C(=O)N[C@H](C(=O)Nc1ccc([C@H](C)[C@@H](NC(=O)CCF)C(=O)N2CCN(C)CC2)cc1F)C(C1CC1)C1CC1` [Compound 218]: the IC50 was 10 to 100 nM.
The same measure, in the same setting: the same measure for `CCC(=O)N[C@@H](C(=O)N1C[C@H]2C[C@@H]1CN2C)[C@@H](C)c1ccc(NC(=O)[C@@H](NC(=O)c2ccnn2C(C)C)C(C2CC2)C2CC2)c(F)c1` [Compound 266]: 10 to 100 nM; for `CCc1nonc1C(=O)N[C@H](C(=O)Nc1ccc([C@H](C)[C@@H](NC(=O)[C@H](C)OC)C(=O)N2CCN(C)CC2)cc1F)C(C1CC1)C1CC1` [Compound 220]: less than 10 nM.
For `CCC(=O)N[C@@H](C(=O)N1CCN(C)CC1)[C@@H](C)c1ccc(NC(=O)[C@@H](NC(=O)c2ccnn2C)C(C2CC2)C2CC2)c(F)c1` [Compound 247], the IC50 was 10 to 100 nM.
Still for that read-out and setting: the value for `CO[C@@H](C)C(=O)N[C@@H](C(=O)N1CCN(C)CC1)[C@@H](C)c1ccc(NC(=O)[C@@H](NC(=O)C2(F)CC2)C(C2CC2)C2CC2)c(F)c1` [Compound 272] was 10 to 100 nM.
For the compound `CCC(=O)N[C@@H](C(=O)N1CCN(C)[C@H](C)C1)[C@@H](C)c1ccc(NC(=O)[C@@H](NC(=O)c2ccnn2CCO)C(C2CC2)C2CC2)c(F)c1` [Compound 244], the IC50 is 100 to 10000 nM.
For `CCC(=O)N[C@@H](C(=O)N1CC[C@H](N(C)C)C1)[C@@H](C)c1ccc(NC(=O)[C@@H](NC(=O)c2ccnn2CC)C(C2CC2)C2CC2)c(F)c1` [Compound 240], the IC50 is 10 to 100 nM.
Same read-out and setting: the value for `CCn1nccc1C(=O)N[C@H](C(=O)Nc1ccc([C@H](C)[C@@H](NC(=O)[C@H](C)OC)C(=O)N2CC[C@H](N(C)C)C2)cc1F)C(C1CC1)C1CC1` [Compound 255] was less than 10 nM.
Take `CCOC(=O)N1CC[C@H]1C(=O)N[C@@H](C(=O)N1CCN(C)CC1)[C@@H](C)c1ccc(NC(=O)[C@@H](NC(=O)C2(F)CC2)C(C2CC2)C2CC2)c(F)c1` [Compound 274]: the IC50 is 10 to 100 nM.
On the same count and under the same terms, the value for `CCn1nccc1C(=O)N[C@H](C(=O)Nc1ccc([C@H](C)[C@@H](NC(=O)[C@H](C)OC)C(=O)N2C[C@H]3CC[C@@H](C2)N3C)cc1F)C(C1CC1)C1CC1` [Compound 254] was less than 10 nM; that for `CCOC(=O)N(C)[C@@H](C)C(=O)N[C@@H](C(=O)N1CCN(C)CC1)[C@@H](C)c1ccc(NC(=O)[C@@H](NC(=O)c2ccnn2CC)C(C2CC2)C2CC2)c(F)c1` [Compound 211] was less than 10 nM.
Regarding `CCC(=O)N[C@@H](C(=O)N1C[C@H]2CC[C@@H](C1)N2C)[C@@H](C)c1ccc(NC(=O)[C@@H](NC(=O)c2ccnn2CC)C(C2CC2)C2CC2)c(F)c1` [Compound 239], the IC50 is less than 10 nM.
As for `CCC(=O)N[C@@H](C(=O)N1CCC[C@@H](N)C1)[C@@H](C)c1ccc(NC(=O)[C@@H](NC(=O)c2ccnn2CC)C(C2CC2)C2CC2)c(F)c1` [Compound 268], the IC50 is 10 to 100 nM.
Turning to `CCC(=O)N[C@@H](C(=O)N1CCOCC1)[C@@H](C)c1ccc(NC(=O)[C@@H](NC(=O)c2ccnn2CCF)C(C2CC2)C2CC2)c(F)c1` [Compound 251], the IC50 was 10 to 100 nM.
Regarding `CCC(=O)N[C@@H](C(=O)N1C[C@@H]2C[C@H]1CN2C)[C@@H](C)c1ccc(NC(=O)[C@@H](NC(=O)c2ccnn2CC)C(C2CC2)C2CC2)c(F)c1` [Compound 235], the IC50 was 10 to 100 nM.
For the compound `CCC(=O)N[C@@H](C(=O)N1C[C@H]2C[C@@H]1CN2C)[C@@H](C)c1ccc(NC(=O)[C@@H](NC(=O)c2ccnn2CC)C(C2CC2)C2CC2)c(F)c1` [Compound 236], the IC50 was 10 to 100 nM.
In the case of `CCc1nonc1C(=O)N[C@H](C(=O)Nc1ccc([C@H](C)[C@@H](NC(=O)COC)C(=O)N2CCN(C)CC2)cc1F)C(C1CC1)C1CC1` [Compound 206], the IC50 is less than 10 nM.
Consider `CCC(=O)N[C@@H](C(=O)N1CC[C@@H](N(C)C)C1)[C@@H](C)c1ccc(NC(=O)[C@@H](NC(=O)c2ccnn2CC)C(C2CC2)C2CC2)c(F)c1` [Compound 242], for which the IC50 is 10 to 100 nM.
As to `CCn1nccc1C(=O)N[C@H](C(=O)Nc1ccc([C@H](C)[C@@H](NC(=O)CC2CC2)C(=O)N2CCN(C)CC2)cc1F)C(C1CC1)C1CC1` [Compound 227], the IC50 is less than 10 nM.
Still for that read-out and setting: the same measure for `CCC(=O)N[C@@H](C(=O)N1CCN(C)C[C@@H]1C)[C@@H](C)c1ccc(NC(=O)[C@@H](NC(=O)c2ccnn2CC)C(C2CC2)C2CC2)c(F)c1` [Compound 208]: less than 10 nM; for `CCC(=O)N[C@@H](C(=O)N1CCN(C)CC1)[C@@H](C)c1ccc(NC(=O)[C@@H](NC(=O)c2nonc2CC)C(C2CC2)C2CC2)c(F)c1` [Compound 204]: less than 10 nM; for `CCC(=O)N[C@@H](C(=O)N1CC[C@H](N(C)C)C1)[C@@H](C)c1ccc(NC(=O)[C@@H](NC(=O)c2ccnn2C(C)C)C(C2CC2)C2CC2)c(F)c1` [Compound 265]: less than 10 nM.
Take `CO[C@@H](C)C(=O)N[C@@H](C(=O)N1C[C@H]2CC[C@@H](C1)N2C)[C@@H](C)c1ccc(NC(=O)[C@@H](NC(=O)c2ccnn2C(C)C)C(C2CC2)C2CC2)c(F)c1` [Compound 261]: the IC50 was less than 10 nM.
On to `CCOC(=O)N(C)[C@@H](C)C(=O)N[C@@H](C(=O)N1CCN(C)[C@H](C)C1)[C@@H](C)c1ccc(NC(=O)[C@@H](NC(=O)c2ccnn2CC)C(C2CC2)C2CC2)c(F)c1` [Compound 210], for which the IC50 was less than 10 nM.

Staying with this test, now noted: IL17 AA HEK-5 pIC50, HEK-Blue IL-17 reporter cells, IL-17A/A stimulation, 20 hours, SEAP readout.
`CCn1nccc1C(=O)N[C@H](C(=O)Nc1ccc([C@H](C)[C@@H](NC(=O)CF)C(=O)N2CCN(C)[C@H](C)C2)cc1F)C(C1CC1)C1CC1` [Compound 228]: the IC50 is 10 to 100 nM.
